# ChEMBL document CHEMBL1909570, “Synthesis and antibacterial activity of N4-mono alkyl derivatives of novel glycopeptide LYV07ww01” (2011)
# What was measured:
# Assay type in all cases: functional
# Streptococcus pneumoniae = assay: Antibacterial activity against Streptococcus pneumoniae 31002 by CLSI agar microdilution method
# Staphylococcus aureus = assay: Antibacterial activity against Staphylococcus aureus 26003 by CLSI agar microdilution method
# [1] = tested on: Staphylococcus epidermidis; assay: Antibacterial activity against Staphylococcus epidermidis 26069 by CLSI agar microdilution method
# Streptococcus = assay: Antibacterial activity against Streptococcus gamma 32206 by CLSI agar microdilution method
# Staphylococcus = assay: Antibacterial activity against Staphylococcus albus 26101 by CLSI agar microdilution method
# Enterococcus faecium = assay: Antibacterial activity against Enterococcus faecium 32220 by CLSI agar microdilution method
Compound,MIC (Streptococcus pneumoniae) [µg/mL],MIC (Staphylococcus aureus) [µg/mL],MIC [1] [µg/mL],MIC (Streptococcus) [µg/mL],MIC (Staphylococcus) [µg/mL],MIC (Enterococcus faecium) [µg/mL]
CN[C@H](CC(C)C)C(=O)N[C@H]1C(=O)N[C@@H](CC(N)=O)C(=O)N[C@H]2C(=O)N[C@H]3C(=O)N[C@H](C(=O)N[C@@H](C(=O)O)c4cc(O)cc(O)c4-c4cc3ccc4O)[C@H](O[C@H]3C[C@](C)(N)[C@H](O)[C@H](C)O3)c3ccc(c(Cl)c3)Oc3cc2cc(c3O[C@@H]2O[C@H](CO)[C@@H](O)[C@H](O)[C@H]2O[C@H]2C[C@](C)(NCc3ccc(Sc4ccccc4)cc3)[C@H](O)[C@H](C)O2)Oc2ccc(cc2Cl)[C@H]1O,3.13,3.13,> 25,3.13,3.13,3.13
CCCCCCCCCN[C@@]1(C)C[C@H](O[C@H]2[C@H](Oc3c4cc5cc3Oc3ccc(cc3Cl)[C@@H](O[C@H]3C[C@](C)(N)[C@H](O)[C@H](C)O3)[C@@H]3NC(=O)[C@H](NC(=O)[C@@H]5NC(=O)[C@H](CC(N)=O)NC(=O)[C@H](NC(=O)[C@@H](CC(C)C)NC)[C@H](O)c5ccc(c(Cl)c5)O4)c4ccc(O)c(c4)-c4c(O)cc(O)cc4[C@H](C(=O)O)NC3=O)O[C@H](CO)[C@@H](O)[C@@H]2O)O[C@@H](C)[C@H]1O,1.56,3.13,> 25,1.56,6.25,> 25
CN[C@H](CC(C)C)C(=O)N[C@H]1C(=O)N[C@@H](CC(N)=O)C(=O)N[C@H]2C(=O)N[C@H]3C(=O)N[C@H](C(=O)N[C@@H](C(=O)O)c4cc(O)cc(O)c4-c4cc3ccc4O)[C@H](O[C@H]3C[C@](C)(N)[C@H](O)[C@H](C)O3)c3ccc(c(Cl)c3)Oc3cc2cc(c3O[C@@H]2O[C@H](CO)[C@@H](O)[C@H](O)[C@H]2O[C@H]2C[C@](C)(NCc3ccc(Oc4cccc(OC)c4)cc3)[C@H](O)[C@H](C)O2)Oc2ccc(cc2Cl)[C@H]1O,3.13,3.13,> 25,0.78,3.13,3.13
CCCCCCCCOc1ccc(CN[C@@]2(C)C[C@H](O[C@H]3[C@H](Oc4c5cc6cc4Oc4ccc(cc4Cl)[C@@H](O[C@H]4C[C@](C)(N)[C@H](O)[C@H](C)O4)[C@@H]4NC(=O)[C@H](NC(=O)[C@@H]6NC(=O)[C@H](CC(N)=O)NC(=O)[C@H](NC(=O)[C@@H](CC(C)C)NC)[C@H](O)c6ccc(c(Cl)c6)O5)c5ccc(O)c(c5)-c5c(O)cc(O)cc5[C@H](C(=O)O)NC4=O)O[C@H](CO)[C@@H](O)[C@@H]3O)O[C@@H](C)[C@H]2O)cc1,6.25,12.5,> 25,6.25,12.5,12.5
CN[C@H](CC(C)C)C(=O)N[C@H]1C(=O)N[C@@H](CC(N)=O)C(=O)N[C@H]2C(=O)N[C@H]3C(=O)N[C@H](C(=O)N[C@@H](C(=O)O)c4cc(O)cc(O)c4-c4cc3ccc4O)[C@H](O[C@H]3C[C@](C)(N)[C@H](O)[C@H](C)O3)c3ccc(c(Cl)c3)Oc3cc2cc(c3O[C@@H]2O[C@H](CO)[C@@H](O)[C@H](O)[C@H]2O[C@H]2C[C@](C)(NCc3ccc(Cl)cc3Cl)[C@H](O)[C@H](C)O2)Oc2ccc(cc2Cl)[C@H]1O,3.13,3.13,25,1.56,3.13,1.56
CN[C@H](CC(C)C)C(=O)N[C@H]1C(=O)N[C@@H](CC(N)=O)C(=O)N[C@H]2C(=O)N[C@H]3C(=O)N[C@H](C(=O)N[C@@H](C(=O)O)c4cc(O)cc(O)c4-c4cc3ccc4O)[C@H](O[C@H]3C[C@](C)(N)[C@H](O)[C@H](C)O3)c3ccc(c(Cl)c3)Oc3cc2cc(c3O[C@@H]2O[C@H](CO)[C@@H](O)[C@H](O)[C@H]2O[C@H]2C[C@](C)(NCc3cccs3)[C@H](O)[C@H](C)O2)Oc2ccc(cc2Cl)[C@H]1O,6.25,25,> 25,25,> 25,12.5

# Further molecules by falling MIC (Streptococcus pneumoniae), results first:
MIC (Streptococcus pneumoniae) [µg/mL],MIC (Staphylococcus aureus) [µg/mL],MIC [1] [µg/mL],MIC (Streptococcus) [µg/mL],MIC (Staphylococcus) [µg/mL],MIC (Enterococcus faecium) [µg/mL],Compound
1.56,1.56,> 25,0.78,3.13,3.13,CN[C@H](CC(C)C)C(=O)N[C@H]1C(=O)N[C@@H](CC(N)=O)C(=O)N[C@H]2C(=O)N[C@H]3C(=O)N[C@H](C(=O)N[C@@H](C(=O)O)c4cc(O)cc(O)c4-c4cc3ccc4O)[C@H](O[C@H]3C[C@](C)(N)[C@H](O)[C@H](C)O3)c3ccc(c(Cl)c3)Oc3cc2cc(c3O[C@@H]2O[C@H](CO)[C@@H](O)[C@H](O)[C@H]2O[C@H]2C[C@](C)(NCc3ccc4ccccc4c3)[C@H](O)[C@H](C)O2)Oc2ccc(cc2Cl)[C@H]1O
0.78,1.56,> 25,0.78,1.56,1.56,CN[C@H](CC(C)C)C(=O)N[C@H]1C(=O)N[C@@H](CC(N)=O)C(=O)N[C@H]2C(=O)N[C@H]3C(=O)N[C@H](C(=O)N[C@@H](C(=O)O)c4cc(O)cc(O)c4-c4cc3ccc4O)[C@H](O[C@H]3C[C@](C)(N)[C@H](O)[C@H](C)O3)c3ccc(c(Cl)c3)Oc3cc2cc(c3O[C@@H]2O[C@H](CO)[C@@H](O)[C@H](O)[C@H]2O[C@H]2C[C@](C)(NCc3cccc(Cl)c3)[C@H](O)[C@H](C)O2)Oc2ccc(cc2Cl)[C@H]1O
0.78,3.13,> 25,0.78,3.13,6.25,CN[C@H](CC(C)C)C(=O)N[C@H]1C(=O)N[C@@H](CC(N)=O)C(=O)N[C@H]2C(=O)N[C@H]3C(=O)N[C@H](C(=O)N[C@@H](C(=O)O)c4cc(O)cc(O)c4-c4cc3ccc4O)[C@H](O[C@H]3C[C@](C)(N)[C@H](O)[C@H](C)O3)c3ccc(c(Cl)c3)Oc3cc2cc(c3O[C@@H]2O[C@H](CO)[C@@H](O)[C@H](O)[C@H]2O[C@H]2C[C@](C)(NCc3ccc(Cl)c(Cl)c3)[C@H](O)[C@H](C)O2)Oc2ccc(cc2Cl)[C@H]1O
0.78,1.56,> 25,1.56,1.56,> 25,CCCCCCCN[C@@]1(C)C[C@H](O[C@H]2[C@H](Oc3c4cc5cc3Oc3ccc(cc3Cl)[C@@H](O[C@H]3C[C@](C)(N)[C@H](O)[C@H](C)O3)[C@@H]3NC(=O)[C@H](NC(=O)[C@@H]5NC(=O)[C@H](CC(N)=O)NC(=O)[C@H](NC(=O)[C@@H](CC(C)C)NC)[C@H](O)c5ccc(c(Cl)c5)O4)c4ccc(O)c(c4)-c4c(O)cc(O)cc4[C@H](C(=O)O)NC3=O)O[C@H](CO)[C@@H](O)[C@@H]2O)O[C@@H](C)[C@H]1O
0.39,3.13,> 25,1.56,3.13,1.56,CCCCCCCCN[C@@]1(C)C[C@H](O[C@H]2[C@H](Oc3c4cc5cc3Oc3ccc(cc3Cl)[C@@H](O[C@H]3C[C@](C)(N)[C@H](O)[C@H](C)O3)[C@@H]3NC(=O)[C@H](NC(=O)[C@@H]5NC(=O)[C@H](CC(N)=O)NC(=O)[C@H](NC(=O)[C@@H](CC(C)C)NC)[C@H](O)c5ccc(c(Cl)c5)O4)c4ccc(O)c(c4)-c4c(O)cc(O)cc4[C@H](C(=O)O)NC3=O)O[C@H](CO)[C@@H](O)[C@@H]2O)O[C@@H](C)[C@H]1O
